Key:
Format in all cases: biochemical
O-GlcNAcase [1] = experiment: Verification Experiment 6: impedance of tau protein with second or third antibody, with and without thiamet G; details: 5 pg/ml tau protein
Description: (§1) Tau protein at a concentration of 5250 ng/mL was diluted 1/10 at various concentrations (0.5 fg/mL to 50 pg/mL) with 0.1% PBST and treated with Thiamet G treatment inhibiting O-GlcNAcase or BZX2 promoting O-GlcNAcase as needed.
(§2) The impedance Z was measured with and without the substance that inhibits O-GlcNAcase, using the system for monitoring post-translational modification of protein according to the embodiment of the present disclosure.
(a) 5 pg/ml of tau protein, (b) 5 pg/ml of tau protein+second antibody (AT-8 antibody), and (c) 5 pg/ml of tau protein+third antibody (O-g Antibody) were introduced into the sensor 100, respectively, and then impedance Z was measured for PBS, Neg, Thiamet G untreated, and 100 μM of thiamet G treated samples, respectively.

O-GlcNAcase [2] = experiment: Verification Experiment 4: impedance with and without O-GlcNAcase inhibitor, third antibody (O-g Antibody); details: 100 μM thiamet G treated compared to untreated; tau protein 0.5-524 fg/ml; O-glycosylation site antibody
Description: as §1, §2

O-GlcNAcase [3] = experiment: Verification Experiment 5: impedance with O-GlcNAcase inhibitor or promoter, second antibody (AT-8 antibody); details: 100 μM BZX2 treated; tau protein 0.5-500 fg/ml; AT-8 phosphorylation site antibody
Description: as §1
The impedance Z was measured for when treated with a substance that inhibits O-GlcNAcase; and when treated with a substance that promotes O-GlcNAcase of O-glycosylated tau protein, using the system for monitoring post-translational modification of protein according to the embodiment of the present disclosure.
A sample containing the second conjugate S2 (microbead+first antibody+tau protein) and an antibody (second antibody, AT-8 antibody) that can bind to the phosphorylation site of tau protein was introduced into the sensor 100, and impedance Z was measured for each of the following: (a) treated with 100 μM of thiamet G which is a substance that inhibits O-GlcNAcase; and (b) treated with 100 μM of BZX2 which is substance that promotes O-GloNAcase, for respective concentrations (0.5 fg/ml, 5 fg/ml, 50 fg/ml, and 500 fg/ml) of tau protein.
The impedance Z was measured from each sample when the first sample containing the second conjugate S2 was introduced into the sensor 100 and when the second sample containing the third conjugate S3 was introduced into the sensor 100.

| impedance Z2 measured as the second antibody (AT-8 antibody) was added (O-GlcNAcase [1]; 100 μM thiamet G treated (untreated 33.65 MΩ)) | impedance Z3 measured as the third antibody (O-g antibody) was added (O-GlcNAcase [1]; 100 μM thiamet G treated (untreated 38.27 MΩ)) | difference in impedance (Z1−Z3) (O-GlcNAcase [2]) | Molecule | impedance difference (Z1−Z2) (O-GlcNAcase [3]) |
| --- | --- | --- | --- | --- |
| 37.65 MΩ | 35.0 MΩ | greater | CCN=C1N[C@@H]2[C@@H](O)[C@H](O)[C@@H](CO)O[C@@H]2S1 [thiamet G] | – |
| – | – | – | BZX2 | increases as the concentration of tau protein increases |

From patent US11668709B2, “System for monitoring post-translational modification of protein using bio-sensor with gap and manufacturing method for bio-sensor” (KOREA INSTITUTE OF SCIENCE AND TECHNOLOGY, priority 2018, dated 2023)
